What all share (assay): relative viability (nuclei count vs DMSO), 5 days (fraction); higher = more cells survive
Compound in the test “EHT 1864 + Foretinib”: C1COCCN1CC2=CC(=O)C(=CO2)OCCCCCSC3=C4C=CC(=CC4=NC=C3)C(F)(F)F [EHT 1864] + COc1cc2c(Oc3ccc(NC(=O)C4(C(=O)Nc5ccc(F)cc5)CC4)cc3F)ccnc2cc1OCCCN1CCOCC1 [Foretinib] (partner 0.25 µM)
The method, boiled down:
(§1)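 Lung cancer cell lines were seeded in 1536-well plates and dosed by pin tool the next day, with either a single drug or a fixed anchor-drug dose combined with five library-drug doses (not always all listed) spaced in √10 steps. Five days later, one step fixed the cells and stained their nuclei (final 0.05% Triton X-100, 1% formaldehyde, 1 ug/ml Hoechst), and nuclei were counted on 4× images. Relative viability is the nuclei count in treated wells divided by the count in vehicle wells, and each value is the median of duplicate plates.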

Compound in the test “EHT 1864 + Pictilisib”: C1COCCN1CC2=CC(=O)C(=CO2)OCCCCCSC3=C4C=CC(=CC4=NC=C3)C(F)(F)F [EHT 1864] + CS(=O)(=O)N1CCN(Cc2cc3nc(-c4cccc5[nH]ncc45)nc(N4CCOCC4)c3s2)CC1 [Pictilisib] (partner 1 µM)
The method, boiled down:
as §1

Compound in the test “EHT 1864 + AZD7762”: C1COCCN1CC2=CC(=O)C(=CO2)OCCCCCSC3=C4C=CC(=CC4=NC=C3)C(F)(F)F [EHT 1864] + NC(=O)Nc1cc(-c2cccc(F)c2)sc1C(=O)N[C@H]1CCCNC1 [AZD7762] (partner 0.2 µM)
Put shortly: as §1

Compound in the test “EHT 1864 + Vorinostat”: C1COCCN1CC2=CC(=O)C(=CO2)OCCCCCSC3=C4C=CC(=CC4=NC=C3)C(F)(F)F [EHT 1864] + O=C(CCCCCCC(=O)Nc1ccccc1)NO [Vorinostat] (partner 1 µM)
The method, boiled down:
as §1

NCI-H2126: the relative viability with EHT 1864 + Foretinib (first compound 0.04 µM) amounted to 1.17; in the test with EHT 1864 + Foretinib (first compound 0.1265 µM), 1.22; with EHT 1864 + Foretinib (first compound 0.4 µM), 1.19; in the test with EHT 1864 + Foretinib (first compound 1.265 µM) it was 1.22; with EHT 1864 + Foretinib (first compound 4 µM) it was 1.22; in the test with EHT 1864 + Pictilisib (first compound 0.04 µM), 0.53. Besides, the relative viability with EHT 1864 + Pictilisib (first compound 0.1265 µM) was 0.44; with EHT 1864 + Pictilisib (first compound 0.4 µM), 0.516; in the test with EHT 1864 + Pictilisib (first compound 1.265 µM), 0.521; in the test with EHT 1864 + Pictilisib (first compound 4 µM) it was 0.514; with EHT 1864 + AZD7762 (first compound 0.04 µM) it was 1.02; with EHT 1864 + AZD7762 (first compound 0.1265 µM) it was 0.866. Moreover, the relative viability in the test with EHT 1864 + AZD7762 (first compound 0.4 µM) is 0.95; in the test with EHT 1864 + AZD7762 (first compound 1.265 µM) it was 0.93; with EHT 1864 + AZD7762 (first compound 4 µM), 0.957; in the test with EHT 1864 + Vorinostat (first compound 0.04 µM), 0.836; with EHT 1864 + Vorinostat (first compound 0.1265 µM), 0.711; in the test with EHT 1864 + Vorinostat (first compound 0.4 µM), 0.735. The relative viability was 0.795 with EHT 1864 + Vorinostat (first compound 1.265 µM) and 0.681 with EHT 1864 + Vorinostat (first compound 4 µM).

Turning to HCC-827, the relative viability in the test with EHT 1864 + Foretinib (first compound 0.04 µM) worked out at 0.985; with EHT 1864 + Foretinib (first compound 0.1265 µM) it was 0.965; with EHT 1864 + Foretinib (first compound 0.4 µM) it was 1.01; in the test with EHT 1864 + Foretinib (first compound 1.265 µM), 0.977; with EHT 1864 + Foretinib (first compound 4 µM), 0.928; with EHT 1864 + Pictilisib (first compound 0.04 µM), 1.15. The relative viability is 1.11 with EHT 1864 + Pictilisib (first compound 0.1265 µM); 1 with EHT 1864 + Pictilisib (first compound 0.4 µM); 0.875 with EHT 1864 + Pictilisib (first compound 1.265 µM); 1.12 in the test with EHT 1864 + Pictilisib (first compound 4 µM); 0.198 with EHT 1864 + AZD7762 (first compound 0.04 µM); 0.22 in the test with EHT 1864 + AZD7762 (first compound 0.1265 µM). Moreover, the relative viability came out at 0.228 in the test with EHT 1864 + AZD7762 (first compound 0.4 µM); 0.252 in the test with EHT 1864 + AZD7762 (first compound 1.265 µM); 0.201 in the test with EHT 1864 + AZD7762 (first compound 4 µM); 0.932 with EHT 1864 + Vorinostat (first compound 0.04 µM); 0.59 in the test with EHT 1864 + Vorinostat (first compound 0.1265 µM); 0.843 with EHT 1864 + Vorinostat (first compound 0.4 µM). Besides, the relative viability in the test with EHT 1864 + Vorinostat (first compound 1.265 µM) turned out to be 0.96; with EHT 1864 + Vorinostat (first compound 4 µM) it was 0.602.

In the case of NCI-H3122, the relative viability is 0.938 with EHT 1864 + Foretinib (first compound 0.04 µM); 0.983 in the test with EHT 1864 + Foretinib (first compound 0.1265 µM); 0.961 with EHT 1864 + Foretinib (first compound 0.4 µM); 0.982 in the test with EHT 1864 + Foretinib (first compound 1.265 µM); 0.885 with EHT 1864 + Foretinib (first compound 4 µM); 0.564 in the test with EHT 1864 + Pictilisib (first compound 0.04 µM). For the same cell line, the relative viability stood at 0.428 with EHT 1864 + Pictilisib (first compound 0.1265 µM); 0.583 with EHT 1864 + Pictilisib (first compound 0.4 µM); 0.617 in the test with EHT 1864 + Pictilisib (first compound 1.265 µM); 0.675 in the test with EHT 1864 + Pictilisib (first compound 4 µM); 0.882 with EHT 1864 + AZD7762 (first compound 0.04 µM); 0.808 with EHT 1864 + AZD7762 (first compound 0.1265 µM). The relative viability with EHT 1864 + AZD7762 (first compound 0.4 µM) is 0.911; with EHT 1864 + AZD7762 (first compound 1.265 µM) it was 0.985; with EHT 1864 + AZD7762 (first compound 4 µM) it was 0.878; in the test with EHT 1864 + Vorinostat (first compound 0.04 µM), 0.934; in the test with EHT 1864 + Vorinostat (first compound 0.1265 µM), 0.76; with EHT 1864 + Vorinostat (first compound 0.4 µM), 0.899. For the same cell line, the relative viability in the test with EHT 1864 + Vorinostat (first compound 1.265 µM) worked out at 1.12; with EHT 1864 + Vorinostat (first compound 4 µM), 0.992.

As for HOP-62, the relative viability with EHT 1864 + Foretinib (first compound 0.04 µM) amounted to 1.02; in the test with EHT 1864 + Foretinib (first compound 0.4 µM), 1.03; in the test with EHT 1864 + Foretinib (first compound 1.265 µM) it was 0.991; in the test with EHT 1864 + Foretinib (first compound 4 µM) it was 1.13; in the test with EHT 1864 + Pictilisib (first compound 0.04 µM) it was 0.788; with EHT 1864 + Pictilisib (first compound 0.4 µM) it was 0.612. In addition, the relative viability with EHT 1864 + Pictilisib (first compound 1.265 µM) was found to be 0.804; with EHT 1864 + Pictilisib (first compound 4 µM) it was 1.09; with EHT 1864 + AZD7762 (first compound 0.04 µM), 0.584; with EHT 1864 + AZD7762 (first compound 0.4 µM), 0.466; with EHT 1864 + AZD7762 (first compound 1.265 µM), 0.485; with EHT 1864 + AZD7762 (first compound 4 µM), 0.794. The relative viability with EHT 1864 + Vorinostat (first compound 0.04 µM) came out at 0.631; in the test with EHT 1864 + Vorinostat (first compound 0.4 µM), 0.616; with EHT 1864 + Vorinostat (first compound 1.265 µM), 0.676; with EHT 1864 + Vorinostat (first compound 4 µM), 0.667.
